Values after ≈ are worked out from the molar mass of the structure shown.
Assay: Solubility in pH 6.8 buffer by high throughput solubility assay
Type: physicochemical

| Compound | solubility [µg/mL] |
| --- | --- |
| CCC(CC)c1ccc(CN2c3ccccc3N(CCCC(=O)N3CCCC3)S2(=O)=O)cc1 | 0.6 (≈ 1.28 µM) |
| O=C(CCCN1c2ccccc2N(Cc2ccc(C(O)C(F)(F)F)cc2)S1(=O)=O)N1CCCC1 (stereo not drawn) | 5.7 (≈ 11.5 µM) |
| O=C(CCCN1c2ccccc2N(Cc2ccc(C(O)(C(F)(F)F)C(F)(F)F)cc2)S1(=O)=O)N1CCCC1 | 0.45 (≈ 0.796 µM) |

Reference: ChEMBL document CHEMBL3400123, “Discovery of 1,3-dihydro-2,1,3-benzothiadiazole 2,2-dioxide analogs as new RORC modulators” (Bioorg Med Chem Lett, 2015)
